Data taken from publication PMC6460286 (Biochimie, 2017).
Read-outs that look alike come from different tables or passages of the source.

What was measured:
[1] = test system: HIF PHD (HIF1 ODD-luc reporter); conditions: specific for HIF PHD; cited from earlier work
[2] = test system: HIF PHD (HIF1 ODD-luc reporter); assay: HIF1 ODD-luc reporter assay in SH-SY5Y cells; format: cell-based; conditions: for effect on HIF1 ODD-luc reporter activation induced by Compound 8a: agents applied in equal concentration; for effect on reporter activation by HIF PHD inhibitors of various nature: NAC up to millimolar concentrations
[3] = test system: HIF-1 target genes (VEGF, HO-1), HIF1α, NQO-1; assay: RT-PCR of HIF1 target genes in N2a cells; format: cell-based, mouse; conditions: 4 h
[4] = Potassium ferricyanide reduction; format: physicochemical; conditions: 1 mM agent, 1 mM potassium ferricyanide, 50 mM Tris-HCl buffer, pH 7.4
HIF1 and HIF2 = conditions: cited from earlier work
PHD2 = conditions: ref 36 (FG-4592), ref 37 (IOX2); cited from earlier work
HIF PHD = conditions: cited from earlier work
HIF = conditions: cited from earlier work
[5] = 3 h incubation, physiological L-Asc (0.04–0.1 mM)
[6] = reporter activation by Compound 8a

## Oc1cccnc1NC(c1ccc(Cl)cc1)c1ccc2cccnc2c1O (stereo not drawn) [Compound 8, adaptaquin]
[1]
  EC50: ~2 µM

## O=C1O[C@H]([C@H](O)CO)C(O)=C1O [D-Asc, D-isoascorbic acid]
[2]; 3 h incubation
  effect on HIF1 ODD-luc reporter activation induced by Compound 8a: neither D-Asc nor NAC applied in the equal concentration cause any change
[2]
  effect on reporter activation by HIF PHD inhibitors of various nature: minor effect, if any
[3]; 100 μM co-treatment with 5 μM Compound 8a
  inhibition of HIF1 target gene activation: under 10%
[4]
  reducing power (ferricyanide reduction kinetics), L-Asc vs D-Asc: no difference in reduction kinetics

## CCOC(=O)c1ccc(O)c(O)c1 [DHB, Ethyl 3,4-dihydroxybenzoate]
[2]; [5]
  suppressing effect of L-Asc on reporter activation induced by the inhibitor: very sensitive to L-Asc
[2]; read-out: EC50 of reporter activation
  EC50: 250 µM

## COC(=O)CNC(=O)C(=O)OC [DMOG, dimethyloxalyl glycine]
[2]; [5]
  suppressing effect of L-Asc on reporter activation induced by the inhibitor: pronounced for DMOG up to 250 μM
[2]; higher DMOG concentrations (mM range), not shown
  suppressing effect of L-Asc on reporter activation induced by the inhibitor: negligible
HIF1 and HIF2; after 2 h incubation
  working concentration resulting in HIF1 and HIF2 stabilization: ca. 1 mM

## Cc1nc(C(=O)NCC(=O)O)c(O)c2ccc(Oc3ccccc3)cc12 [FG-4592]
[2]; [5]
  suppressing effect of L-Asc on reporter activation induced by the inhibitor: minimal
[2]; titration up to 0.6 mM, Supplementary Fig. S2
  concentration above which toxicity is seen: above 100 μM

## O=C(O)CNC(=O)c1c(O)c2ccccc2n(Cc2ccccc2)c1=O [IOX2]
[2]; [5]
  suppressing effect of L-Asc on reporter activation induced by the inhibitor: minimal
PHD2
  inhibition constant, homogeneous enzyme assay with PHD2: nanomolar range

## O=C1O[C@H]([C@@H](O)CO)C(O)=C1O [L-Asc, L-ascorbic acid]
[2]; 3 h incubation
  effect on HIF1 ODD-luc reporter activation induced by Compound 8a: potently suppresses
[2]; [6]
  L-Asc concentration at which suppression is already observed: 10 µM
  concentration above which L-Asc effect shows saturation: above 40 μM
  drop in magnitude of reporter activation with increase in L-Asc concentration: 2.5 fold
  increase in EC50 of Compound 8a with increase in L-Asc concentration: ca. 1.5 fold
[3]; 100 μM
  effect of L-Asc alone on expression of HIF1 target genes: no changes
[4]
  reducing power (ferricyanide reduction kinetics), L-Asc vs D-Asc: no difference in reduction kinetics
HIF PHD
  Km: ~50 µM
HIF1 and HIF2; immunoblotting
  L-Asc effect on HIF stabilization induced by 1 mM monomethyloxalylglycine: absence of L-Asc effect
HIF
  concentration giving the comparable suppressive effect on HIF stability: 50 µM

## CC(=O)N[C@@H](CS)C(=O)O [NAC, N-acetylcysteine]
[2]; 3 h incubation
  effect on HIF1 ODD-luc reporter activation induced by Compound 8a: neither D-Asc nor NAC applied in the equal concentration cause any change
[2]; NAC up to 1 mM, either drug, not shown
  suppressing effect on reporter activation: no suppressing effect
[2]
  effect on reporter activation by HIF PHD inhibitors of various nature: no effect
